Test results published in publication PMC5390903, “Influence of drug transporters and stereoselectivity on the brain penetration of pioglitazone as a potential medicine against Alzheimer's disease” (Scientific Reports, 2015).
Each block holds one molecule with its values, some of them ahead of it.

Assays:
CHO-APP695 cells = assay: Extracellular amyloid-β42 lowering in CHO-APP695 (sandwich ELISA); type: cell-based, Chinese hamster; settings: 48 hours; for effect on increase in extracellular amyloid-β42: 10 μM, versus non-treated CHO-APP695
Method: Figure 4 Extracellular amyloid-β42 levels in culture media samples harvested from both CHO-WT and treated or non-treated CHO-APP695 following 48 hours of post-seeding incubation.
CHO (Chinese hamster ovary) cells stably transfected with mouse APP 695 (CHO-APP695) were used as the AD in vitro model in this experiment. CHO-APP695 and the wild type (CHO-WT) were kindly provided by G. S. Dawe (National University of Singapore, Singapore). Both cell lines were incubated at 37°C in the presence of 5% CO2 for all cell culture work. Cell lines were maintained in DMEM culture medium (Sigma D1152) containing 10% FBS and supplemented with 100 units/mL of penicillin and 100 μg/mL of streptomycin.
When cells were used for experiments, both CHO-APP695 and CHO-WT were standardised at third passage and harvested for seeding when the cells were at log-phase growth. Cells were seeded (n = 7) on 24-well cell culture plates at 1 × 10^5 cells/well in 0.5 mL of culture medium. To evaluate amyloid-lowering effects of (+)-pioglitazone and racemic pioglitazone on extracellular amyloid-β42 levels, additional groups (n = 7) of CHO-APP695 treated with (+)-pioglitazone, (+)-pioglitazone + T007, racemic pioglitazone, and racemic pioglitazone + T007 were also seeded. […] Upon completion of seeding after 24 hours, the culture medium in each well was replaced with 0.5 mL of fresh medium. Seeded cells were incubated further for 48 hours before the culture medium was individually harvested. Harvested samples were briefly centrifuged (800 g) for 5 minutes at 4°C before supernatants were transferred into clean 1.8-mL cryogenic vials and snap frozen in liquid nitrogen. All harvested samples were stored at −80°C until analysis.
Amyloid-β42 levels in culture media were harvested 48 hours after seeding incubation and were quantitatively measured using colorimetric sandwich ELISA kits according to the protocols provided by the manufacturer (#SIG-38954 and #SIG-38956 from Covance, Princeton, NJ). […] All absorbance readings were measured using a Tecan Infinite M200 microplate reader (Tecan, Switzerland).

in vivo = settings: 30 mg/kg
Method: Our established UPLC-MS/MS method was used to quantify pioglitazone concentrations in plasma and brain samples harvested at different time points (1, 2, 4, 6, and 8 hours) after mice were given either racemic pioglitazone or (+)-pioglitazone.
Error bar represents one SD.
A total of forty mice were split into two treatment groups (n = 20), with one group receiving a single dose of the racemic pioglitazone (30 mg/kg, p.o.) and another group receiving the purified (+)-pioglitazone (30 mg/kg, p.o.). Both compounds were dissolved in Milli-Q water using 1% DMSO as co-solvent. Following oral administration of the test compounds, mice from both treatment groups were split again into five subgroups (n = 4), and mice belonging to different subgroups were sacrificed at different time points (1 hour, 2 hours, 4 hours, 6 hours, and 8 hours after oral dosing). All mice were sacrificed by CO2 euthanasia and blood samples were taken via cardiac puncture. Blood samples were then centrifuged at 4000 g (10 minutes) to collect the plasma. Whole brains were collected following transcardial perfusion with saline to remove blood from organs. […] Pioglitazone concentrations versus time graphs were constructed for both brain and plasma samples, and area under curve (AUC) for both (+)-pioglitazone and racemic pioglitazone were then used to assess each tissue's exposure to pioglitazone. AUC was calculated from time 0 hour to infinity (AUC0–∞) for both types of samples using the trapezoidal rule. Comparisons of pioglitazone concentrations in different sample matrices between the two treatment groups were performed using two-tailed independent t-test with Welch's correction, and statistical significance was defined as P < 0.05.

BCRP = tested on: BCRP; design: method as in PMID 22828996; settings: 5 mg/kg; mice; cited from earlier work
[1] = design: method as in PMID 21819568; settings: monkeys; cited from earlier work
[2] = rats, dogs, and monkeys; cited from earlier work
[3] = tested on: P-gp and BCRP drug efflux transporters at the blood-brain-barrier; assay: In vivo investigation of P-gp and BCRP contributions to limited brain penetration of pioglitazone (brain-to-plasma ratio after transporter inhibitor pre-treatment)
Method: (§1) All animals were pre-treated with the respective drug transporter inhibitor(s) 30 minutes before administration of pioglitazone. Thirty minutes after treatment with pioglitazone, all animals were sacrificed and plasma and brain samples were collected. […] The brain-to-plasma ratios of pioglitazone concentrations were used to assess penetration of brain tissue.
(§2) Figure 1 All animals were pre-treated with either the vehicle or the respective drug-transporter inhibitor (n = 6 for each treatment group) 30 minutes prior to drug treatment. Plasma and brain samples were then collected from the animals 30 minutes after pioglitazone treatment. (A) Pioglitazone levels in plasma samples harvested from mice given i.p. pioglitazone with or without pre-treatment of LY335979 (P-gp blocker) and/or Ko143 (BCRP blocker). (B) Brain-to-plasma ratios of pioglitazone concentrations calculated for each mouse given i.p. pioglitazone with or without pre-treatment of LY335979 and/or Ko143.
(§3) A total of 24 mice were divided into four treatment groups (n = 6), where three groups received pre-treatment of efflux pump inhibitors (P-gp inhibitor LY335979, BCRP inhibitor Ko143, and a combination of LY335979 + Ko143) and one group received vehicle pre-treatment as a control. All test compounds (pioglitazone, LY335979, and Ko143) were dissolved in Milli-Q water using 1% DMSO as co-solvent. Pre-treatments of LY335979 (25 mg/kg), Ko143 (5 mg/kg) or a combination of both were given in a single intra-peritoneal (i.p.) injection 30 minutes before pioglitazone administration (i.p. injection, 30 mg/kg). […] Following another 30 minutes after pioglitazone administration, all mice were sacrificed by CO2 euthanasia and their blood samples were collected via cardiac puncture into Eppendorf tubes supplemented with heparin. Transcardial perfusion with saline was then performed on the sacrificed mice to remove traces of blood from organs before the whole brain tissues were harvested. All biological samples were kept on ice immediately after collection. […]

[4] = as above; settings: C57BL/6, mouse, in vivo, 30 mg/kg
Method: as §1, §2, §3

P-gp = tested on: P-gp; design: method as in PMID 10820137; settings: 25 mg/kg; mice; cited from earlier work

brain AUC0–∞ / brain exposure higher than after racemic pioglitazone (in vivo; mouse): 76% | brain AUC0–∞ of pioglitazone (in vivo; mouse, po): 40 µg·h/mL | brain Cmax of pioglitazone (in vivo; mouse, po): 5.07 ± 0.38 µg/mL | peak time (Tmax) of plasma pioglitazone (in vivo; mouse, po): 1 h | plasma AUC0–∞ of pioglitazone (in vivo; mouse, po): 274 µg·h/mL | plasma concentration maximum (Cmax) of pioglitazone (in vivo; mouse, po): 39.92 ± 6.20 µg/mL
Molecule: CCc1ccc(CCOc2ccc(C[C@H]3SC(=O)NC3=O)cc2)nc1 (single isomer, unassigned) [(+)-pioglitazone]
treatment effect on extracellular amyloid-β42 on co-administration of PPARγ selective blocker (T007) (CHO-APP695 cells; 10 μM each): nullified | effect on increase in extracellular amyloid-β42 (CHO-APP695 cells): reduced significantly

Molecule: COc1ccc2c3c([nH]c2c1)[C@H](CC(C)C)N1C(=O)[C@H](CCC(=O)OC(C)(C)C)NC(=O)[C@@H]1C3 [Ko143]
inhibition of BCRP (BCRP): 50%

Molecule: CCc1ccc(CCOc2ccc(CC3SC(=O)NC3=O)cc2)nc1 (stereo not drawn) [pioglitazone, Pioglitazone]
cerebral spinal fluid (CSF) concentration as % of plasma concentrations [1]: less than 3% | effect on increase in extracellular amyloid-β42 (CHO-APP695 cells): reduced significantly | share of serum pioglitazone found in the CSF [2]: approximately 18% | transporter substrate status ([3]; mouse, in vivo): substrate of P-gp | pioglitazone brain-to-plasma concentration ratio ([3]; vehicle pre-treatment (control), pioglitazone 30 mg/kg i.p., 30 minutes after pioglitazone, n = 6): 10.65% | Kp at 30 min [4]: 0.107 ± 0.0125 | AUC(0-inf) (in vivo; C57BL/6, mouse, po): 262 µg·h/mL | Cmax (in vivo; C57BL/6, mouse, po): 53.5 ± 8.07 µg/mL | Tmax (in vivo; C57BL/6, mouse, po): 1 h | brain AUC0–∞ of pioglitazone (in vivo; C57BL/6, mouse, po): 22.7 µg·h/mL | brain Cmax of pioglitazone (in vivo; C57BL/6, mouse, po): 4.88 ± 0.34 µg/mL

Molecule: LY335979
inhibition of P-gp (P-gp): 50%
